# Assay results reported in ChEMBL document CHEMBL3507680, “University of Dundee, Gates Library screen for HepG2 cell viability”.
# Experiment: Human HepG2 cell viability assay in 384 well format
# Format: toxicity, cell-based
# Parameters: dose 125 nL, time 70.5 hour; concentration not given beside the values
# Conditions: HepG2 cells, read-out: Inhibition
row,Structure (SMILES),cytotoxicity at 70.5 h
1,COCCn1ccc2ccc(C(=O)N3CCN(C(C)=O)CC3)cc21,-13.7%
2,CCCN(CCOC)C(=O)c1cc(Cn2c(C)nc3ccccc32)[nH]n1,-2.8%
3,C[C@@H]1CN(S(=O)(=O)N2CCCC2)C[C@@]1(O)C1CC1,-4.68%
4,CC(C)c1cc(CNC(=O)N2CCC(Cc3cnn(C)c3)C2)on1 (centres undefined),-11.4%
5,CNC(=O)c1cccnc1N1CCC(OCc2ccccc2)CC1,-19.8%
6,COc1ccc(C2SC(C)=Nc3c2c(=O)[nH]n3C2CCCCC2)cc1O (centres undefined),2.14%
7,COCC1c2c(cnn2CC2CC2)CCN1Cc1cccs1 (centres undefined),-2.83%
8,CCc1cc(NCCN2CCNC2=O)n2nc(C)c(C)c2n1,-11.4%
9,Cn1cccc1C(=O)N1CC[C@@H]2[C@@H]1CC(=O)N2CC1CCOCC1,0.858%
10,Cc1nnc(CN2CCC(Oc3ccc(F)cc3)CC2)o1,0.0555%
11,O=S1(=O)CCC(n2cc(CNc3ccccc3Br)cn2)C1 (centres undefined),31.4%
12,COCCN1CC(Nc2nc(C3CCCC3)nc3c2cnn3C)CC1=O (centres undefined),18.4%
13,COc1ccc(NC(=O)C2CC(=O)n3cnnc3S2)cc1 (centres undefined),2.23%
14,COc1cccc(-c2ncc(CN3C[C@@H]4CC[C@H](C3)N(C)C4=O)s2)c1,-0.692%
15,O=C1CC[C@H]2[C@H](CCN2c2ncc(F)cn2)N1c1cccnc1,-6.96%
16,Cc1cc(N2CCC(N(C)C(=O)c3ccccc3)CC2)nc(C)n1,-0.672%
17,CC(C)N1CCC(N2CCOC3(CCCC3)C2)C1=O (centres undefined),-6.53%
18,CC(C)(C)c1noc(CCCC(=O)N2CCNC(=O)CC2)n1,-6.5%
19,COCCNC(=O)c1cc(-n2cccc2)ccc1Cl,-23.7%
20,Cc1ncsc1-c1ccn(CC(=O)Nc2cnn(C)n2)n1,45.6%
21,CCc1nnc2n1CCN(C(=O)c1cnc(C3CC3)s1)C2,-9.47%
22,Cc1cc(C)nc(Nc2nccnc2C2CCCN(CCO)C2)n1 (centres undefined),-3.54%
23,CCc1nc(C)c(C(=O)N(C)Cc2cnc3ccccn23)o1,-7.82%

row,Structure (SMILES),cytotoxicity at 70.5 h
1,O=C(NCC1CC1)[C@@H]1C[C@@H]2OCCN[C@@H]2C1,-2.73%
2,CN(Cc1cnn(C)c1)C(=O)Cn1c(CS(C)(=O)=O)nc2ccccc21,-12.9%
3,CC1CCCN(C(=O)c2ncncc2Cl)C1 (centres undefined),12.9%
4,O=C(CCN1CCOC1=O)Nc1cnn(-c2ccccc2Cl)c1,-7.73%
5,FC(F)(F)c1ccnc(N2CCCC(N3CCOCC3)C2)c1 (centres undefined),9.74%
6,CO[C@H]1CNC[C@@H]1NC(=O)CCc1nc(-c2ccccc2)no1,-0.167%
7,CCCC(NC(=O)c1cc(C)n(C2CC2)c1C)c1nnn[nH]1 (centres undefined),-0.607%
8,COc1ccc(CNC(=O)NCC(=O)NC2CC2)c(C(F)(F)F)c1,21.2%
9,CC(=O)N(C)Cc1cccc(NC(=O)N(C)Cc2nccs2)c1,-4.8%
10,c1cnn(CC2CN(CCCOc3ccc4c(c3)OCO4)CCO2)c1 (centres undefined),-8.43%
11,CC(C)CN(Cc1nnc(-c2ccco2)o1)CC(C)C,2.87%
12,COc1ccc(-c2noc(CN3CC(n4cccn4)C3)n2)c(OC)c1,-7.32%
13,COc1cccc(-n2c(C)cc(C(=O)NS(C)(=O)=O)c2C)c1,-1.93%
14,CC(C)CO[C@@H]1CC[C@H]2[C@H]1OCCN2S(=O)(=O)C1CC1,12.4%
15,N#Cc1c(N)nc2c(c1-c1c[nH]nc1C1CCCCC1)COCC2,0.079%
16,CC(C)c1nccn1C1CCCN(C(=O)c2ccc3[nH]cnc3c2)C1 (centres undefined),8.82%
17,Cc1ccc(CN2C[C@@H](C(=O)O)[C@H](c3ccccn3)C2)o1,17.9%
18,CNS(=O)(=O)c1ccc(CNC(=O)C2CN(C)CCO2)cc1 (centres undefined),-5.64%
19,CCCc1n[nH]c(C2CN(C(=O)c3cc4c(s3)CCC4)CCO2)n1 (centres undefined),-7.08%
20,OCC1CCCN1c1cc(NCc2cccs2)ncn1 (centres undefined),17.3%
21,CO[C@H]1CN(C(=O)OC(C)(C)C)CC1NCc1ccoc1 (some centres undefined),-13.8%
22,CC(=O)N1CCCC(C(=O)N2Cc3nc(C)n(C)c(=O)c3C2)C1 (centres undefined),-3.08%
23,CC1CCCN(S(=O)(=O)NCCN/C(O)=C2/N=CC=CC2=O)C1 (centres undefined),0.429%

row,Structure (SMILES),cytotoxicity at 70.5 h
1,Cc1nc2ccccc2n1CCNCc1cccc(C#N)c1,-14.8%
2,CCC(Nc1nccc(C2CCCC2)n1)c1ncccc1C (centres undefined),14.1%
3,O=C(c1n[nH]c(=O)c2ccccc12)N1CCCC1Cn1cccn1 (centres undefined),-8.16%
4,Cn1ncc(C(=O)OCC2CCN(c3ccccc3)C2)c1C(F)F (centres undefined),-3.5%
5,CC(C)c1nc(NS(=O)(=O)c2ccccc2Cl)no1,0.444%
6,CN(C)CC(=O)N1C[C@H]2CCC[C@@]2(COc2ccccn2)C1,-16.4%
7,CC(NC1CCN(CCS(C)(=O)=O)CC1)c1ccc(Cl)cc1 (centres undefined),19.3%
8,COc1ccccc1C1(CNc2ncc(S(N)(=O)=O)s2)CC1,-6.5%
9,CC[C@H]1CN2CC[C@H]1C[C@@H]2CNC(=O)NC1CCCCC1,4.29%
10,COC1CCN(CCNC(=O)NCC(C)c2cccc(C)c2)CC1 (centres undefined),9.93%
11,CC(c1ccc(F)c(F)c1)N1CCN(Cc2nccn2C)CC1 (centres undefined),47.8%
12,CCCN1CC2(CCN(C)CC2)CC1C(=O)NCCn1nc(C)nc1C (centres undefined),6.07%
13,COC(=O)C1CCN(c2cncc(-n3nc(C)cc3C)n2)CC1,2.18%
14,Cc1cccc(OC2CCN(C(=O)CNC(=O)N(C)C)CC2)c1,-0.834%
15,Cc1ccc(NC(=O)CNc2cccc3c2CCCC3)c(Br)c1,-8.9%
16,Cc1c(C(=O)NC2CCCC2)nnn1-c1ccccc1,-8.58%
17,COc1ccnc(CN(C)C(=O)CSc2nnc(N)s2)c1,-5.2%
18,COC1CCN(c2ccc(NC(=O)Cn3cccc3)cc2)CC1,-11%
19,Cn1nccc1CCC(=O)N1CCC(c2cnccn2)CC1,-13.1%
20,Cc1occc1CNC(=O)C1CCN(C(=O)OC(C)(C)C)C1 (centres undefined),-0.732%
21,O=C(Cc1cccs1)NCC(=O)Nc1cn[nH]c1,-11.9%
22,Cc1ccc(CN2CCC(n3cc(CN4CCC(O)CC4)nn3)CC2)s1,-6.27%
23,CN(C)C(=O)c1cccc(CCNS(=O)(=O)c2ccccc2)c1,-1.77%

row,Structure (SMILES),cytotoxicity at 70.5 h
1,CC(C)c1nn(C)c(Cl)c1CNCc1ccc(N(C)C)nc1,-2.07%
2,CC(CCO)Nc1cccc(C(F)(F)F)n1 (centres undefined),3.64%
3,Cc1nc(-c2cccc(Cl)c2)n(CC(=O)NCC2CCCO2)c(=O)c1C (centres undefined),3.53%
4,CC(C(=O)Nc1ccnn1C(C)C)N1CCc2nn(C)c(=O)cc2C1 (centres undefined),4.22%
5,CCc1ccc(CN(C(=O)CCn2cc(S(N)(=O)=O)cn2)C2CC2)cc1,-2.81%
6,Cc1noc(C)c1CN(C)CC(c1cccs1)N1CCOCC1 (centres undefined),-4.33%
7,CCOC[C@@H]1CC[C@H]2[C@H](CCN2S(=O)(=O)c2ccc(F)cc2)O1,-6.92%
8,COc1ccc(F)c(F)c1CN1CC(=O)N(c2ccccc2C)CC1C (centres undefined),-11.4%
9,CCSCc1ccnc(NC(=O)C2CCOC2)c1 (centres undefined),-4%
10,Cc1ccc(C)c(CSc2nnc(C(N)Cc3ccccc3)o2)c1 (centres undefined),-14.6%
11,COc1cc(F)ccc1N(C)Cc1ccncc1,-1.33%
12,CC(C)OCCN1CCC(Nc2ncc(Br)cn2)CC1,-7.14%
13,Cc1cccnc1CN1CCN(C[C@]2(O)CCCN3CCCC[C@@H]32)CC1,-6.65%
14,COCCOCCCC(=O)N1CCC(Cc2ccccc2OC)CC1,-10.9%
15,CN(CC1CCOCC1)C(=O)NCCCN1CCCCC1,-3.15%
16,CCOc1ccc(OCC(O)CN2CCN(S(C)(=O)=O)CC2)cc1 (centres undefined),0.695%
17,CC(C)c1ccc(CN2CCC3(CCCN(c4nncs4)C3)C2)cc1 (centres undefined),-4.12%
18,CCc1nnsc1C(=O)NCCc1nnc2n1CCC2,-7.69%
19,O=C(CCc1ccccc1)N1CCN(C(=O)c2ccc[nH]2)CC1,-12.3%
20,CCN(CCC1CCN(C(=O)NCc2nncn2CC)CC1)CC1CC1,15.6%
21,COc1ccccc1OCCCc1cc(C#N)ccn1,6.71%
22,O[C@@H]1CN(Cc2cccnc2)C[C@H]1Oc1ccccc1,0.823%
23,c1cnnc(NCC2CN(CCN3CCCCC3)CCO2)c1 (centres undefined),-11.2%

row,Structure (SMILES),cytotoxicity at 70.5 h
1,CCCn1nnnc1COc1ccc(C(=O)OC)cc1,-11.5%
2,CC(C)n1cc(S(=O)(=O)N2CCSCC2)cn1,-4.27%
3,CCOC(=O)C1(Cc2ccccc2)CCCN(Cc2nccn2CC)C1 (centres undefined),-0.0866%
4,CCc1cc(N[C@H]2CCC[C@H]2O)n2nccc2n1,7.67%
5,O=S(=O)(NCC1CCOC1)N1CCc2ccccc2C1 (centres undefined),-0.92%
6,CS(=O)(=O)NC1CCN(C(=O)c2ccc(F)cc2)CC1,-3.98%
7,Cc1cc(N2CCN3CCCCC3C2)n2nc(C)c(C)c2n1 (centres undefined),1.57%
8,CCOc1ccc(-c2cc(CCN)ccc2OC)cc1,-1.62%
9,CN(C)C1(CNC(=O)Cc2ccc(F)cc2)CCOCC1,-5.15%
10,CC(C(=O)N1CCOCC1)S(=O)(=O)Cc1nc(C(C)(C)C)no1 (centres undefined),-9.65%
11,CN1CCOC(CNCc2coc(-c3ccc(Cl)cc3)n2)C1 (centres undefined),-2.49%
12,CCN1CCC(NC(=O)CN2CC(n3nc(C)cc3C)C2)CC1,-6.85%
13,Cc1noc2ncc(C(=O)NCC3CCCOC3)cc12 (centres undefined),-8.17%
14,Cc1c(CNC(=O)C2CCCCCN2C)oc2ccccc12 (centres undefined),-0.804%
15,CC1(C)COCCN1C(=O)Cc1csc(Cc2ccccn2)n1,-7.18%
16,O=S(=O)(NCCc1cn2ccccc2n1)N1CCOCC1,-7.24%
17,CN(C)c1ccc(CNC(=O)Nc2ccc(S(C)(=O)=O)nc2)cc1,-7.69%
18,c1ccc(CCCN2CC[C@H](c3nnc(-c4ccccc4)o3)C2)cc1,-2.93%
19,N#CC1(NC(=O)c2ccc(-c3nc(C4CC4)n[nH]3)cc2)CC1,-12.9%
20,COc1ccc(CN2CCn3cncc3C2)cc1Cn1cncn1,-5.89%
21,CS(=O)(=O)N1C[C@@H]2COC[C@@H](CC(=O)N3CCCO3)[C@@H]2C1,-8.58%
22,CC(=O)NCCNC(=O)C1(N2CCCCC2)Cc2ccccc2C1,-7.44%
